Source: ChEMBL document CHEMBL1201862, “PubChem BioAssay data set” (2004)
Active and inactive are the calls of the source.

What was measured:
[1] = IGROV1 ovarian cancer cell cytotoxicity, dose response, PAX8 inhibitor project, plate reader, dry powder samples (AID 743043); assay type: functional, cell-based; settings: IGROV-1
[2] = P. falciparum Dd2 growth inhibitors, dose response, SYBR Green, cherry-picked samples (AID 1159567); assay type: functional, cell-based
[3] = inhibitors of CMV-promoter luciferase reporter, dose response, counter-screen for Pax8 inhibitor project, cell-based, HEK293, luminescence, dry powder (AID 743020); assay type: functional
[4] = NIH:OVCAR-3 ovarian cancer cell cytotoxicity, dose response, PAX8 inhibitor project, plate reader, dry powder samples (AID 743044); assay type: functional, cell-based
Paired box protein Pax-8 = Paired box protein Pax-8 (Homo sapiens, UniProt Q06710); assay: inhibitors of PAX8-driven TPO luciferase reporter, dose response, RMG-I cells, cherry-pick (AID 687027); assay type: functional, cell-based;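 also: luciferase reporter driven by Pax8 target thyroperoxidase promoter measured by SteadyGlo luminescence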
[5] = A2780 ovarian cancer cell cytotoxicity, dose response, cytotoxicity control, plate reader, dry powder samples (AID 743046); assay type: functional, cell-based
[6] = cytotoxicity in OVCAR8 ovarian cancer cells, dose response, PAX8 project, cell-based, plate reader, dry powder samples (AID 743197); assay type: functional; settings: OVCAR-8
[7] = target: T1, RNA-binding protein pos-1 (Caenorhabditis elegans, UniProt G5EF15); assay: inhibitors of POS-1/mex-3 RNA binding, dose response, biochemical, fluorescence polarization (AID 1964);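 also: purified POS-1 fused to maltose binding protein made in E. coli; potency of compounds blocking POS-1 binding to fluorescent RNA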
T1 sequence (G5EF15 whole entry): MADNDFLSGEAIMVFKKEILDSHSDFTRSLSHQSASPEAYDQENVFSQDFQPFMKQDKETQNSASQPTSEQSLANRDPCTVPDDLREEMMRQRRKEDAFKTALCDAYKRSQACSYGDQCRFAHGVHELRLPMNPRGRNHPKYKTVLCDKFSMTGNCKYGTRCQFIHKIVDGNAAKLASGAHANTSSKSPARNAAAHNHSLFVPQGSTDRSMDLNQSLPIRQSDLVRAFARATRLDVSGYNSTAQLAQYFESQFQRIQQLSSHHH

[8] = target: 72 kDa type IV collagenase (Homo sapiens, UniProt P08253); assay: Dose Response validation of uHTS RPN11 inhibitor hits using a MMP-2 Fluorescence assay.; assay type: functional
[9] = target: 26S proteasome non-ATPase regulatory subunit 14 (Homo sapiens, UniProt O00487); assay: inhibition of proteasome subunit RPN11 – biochemical, fluorescence polarization, uHTS hits, confirmation (AID 602368); assay type: functional
Albumin = Albumin (Bos taurus, UniProt P02769); assay: Counterscreen for inhibitors of T-cell receptor (TCR)-CD3 interaction: Fluorescence-based biochemical high throughput dose response assay to identify inhibitors of T-cell receptor (TCR)-CD3 interaction using a TAMRA-labeled BSA probe.; assay type: functional
Prothrombin = Prothrombin (Bos taurus, UniProt P00735); assay: thrombin inhibition, dose response, biochemical, fluorescence polarization, uHTS hits (AID 602369); assay type: functional
[10] = HepG2 cell cytotoxicity, dose response, cytotoxicity control, luminescence plate reader, powder samples, set 2 (AID 651860); assay type: functional, cell-based
cells [11] = assay: cells
[12] = target: Endoplasmic reticulum aminopeptidase 1 (Homo sapiens, UniProt Q9NZ08); assay: ERAP1 aminopeptidase inhibitors, dose response, biochemical, cherry-pick, set 2, plate reader (AID 743314)
[13] = Shn3 3'UTR reporter inhibitors, dose response, cell-based, Clone20 osteoblasts, firefly luciferase, cherry-picked (AID 624132); assay type: functional;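 also: firefly luciferase luminescence from reporter carrying the Shn3 3'UTR in osteoblasts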
[14] = reduction of Shn3 3'UTR firefly luciferase signal, dose response, Schnurri-3 inhibitor project, cell-based, Clone20 osteoblasts, cherry-pick, set 2 (AID 720490); assay type: functional;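 also: actives lower the luminescence signal as inhibitors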
[15] = HepG2 cell cytotoxicity, dose response, cytotoxicity control for Shn3 inhibitor project, CellTiter-Glo, cherry-picked (AID 624134); assay type: functional, cell-based
[16] = reduction of endogenous Shn3 mRNA, dose response, qPCR, Clone20 cells, cherry-pick (AID 743415); assay type: functional, cell-based
cells [17] = assay type: functional, cell-based
[18] = inhibitors of control Renilla luciferase reporter, dose response, counter-screen for Shn3 3'UTR targeting project, Clone20-Shn3RL cells, dual-Glo, cherry-pick, set 2 (AID 720724); assay type: functional, cell-based; settings: Dual-Go Shn3RL
[19] = control 3'UTR Renilla luciferase suppression, dose response, counter-screen for Shn3 inhibitor project, cell-based, Clone20-Shn3RL, cherry-picked (AID 624133); assay type: functional
cells [20] = assay type: functional, cell-based; remark: listed apart in the source
[21] = T. cruzi growth inhibition in host cells, dose response, cell-based, plate reader, dry powder, set 2 (AID 652275); assay type: functional
[22] = miR-122 activators in hepatoma reporter cells, dose response, cell-based, Huh7 psiCHECK-miR122, Renilla luciferase, cherry-picked (AID 651956); assay type: functional;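 also: huh7 hepatoma cells stably carrying a psiCHECK-2 miR-122 sensor plasmid; renilla luciferase signal reporting endogenous miR-122 activity after 48 h compound exposure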
[23] = HEK293T cytotoxicity, dose response, cytotoxicity control for miR-122 modulator project, cell-based, activator set, cherry-pick (AID 720690); assay type: functional;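 also: HEK293T human cells scored for general mammalian cytotoxicity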
[24] = HEK293T cytotoxicity, dose response, cytotoxicity control for miR-122 modulator project, cell-based, inhibitor set, cherry-pick, set 2 (AID 720697); assay type: functional
[25] = HepG2 cell cytotoxicity, dose response, cytotoxicity control, plate reader, cherry-pick, antagonist series (AID 743416); assay type: functional, cell-based
[26] = P. falciparum Dd2 growth inhibitors, dose response, SYBR Green, dry powder samples (AID 1159566); assay type: functional, cell-based;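 also: potency for growth inhibition with lower SYBR green DNA signal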
[27] = HEK293 cell cytotoxicity, dose response, cytotoxicity control, plate reader, cherry-picked samples (AID 743446); assay type: functional, cell-based
[28] = A549 cell cytotoxicity, dose response, cytotoxicity control, plate reader, cherry-pick, antagonist series (AID 743412); assay type: functional, cell-based
[29] = LGR2 antagonists, dose response, cell-based, HEK293, CRE-luciferase reporter, cherry pick, set 2 (AID 743343); assay type: functional;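 also: transfected cells were stimulated with diluted bursicon conditioned medium after compound addition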
[30] = P. falciparum ATP4 D1247Y mutant growth inhibitors, dose response, NITD609-resistant line, SYBR Green, dry powder (AID 1159571); assay type: functional, cell-based;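 also: parasites synchronized at ring stage by sorbitol before testing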
[31] = P. falciparum 3D7-ScDHODH growth inhibitors, dose response, SYBR Green, dry powder samples (AID 1159570); assay type: functional, cell-based;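 also: parasite growth measured after 72 hours of compound exposure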
[32] = HepG2 cell cytotoxicity, dose response, cytotoxicity control, plate reader, dry powder samples (AID 1159569); assay type: functional, cell-based;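 also: inhibitor potency with signal falling toward the positive control level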
[33] = MC4R antagonists, dose response, counter-screen for LGR2 antagonist project, cell-based, plate reader, cherry pick (AID 743444); assay type: functional;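 also: transfected HEK 293 cells stimulated with alpha-MSH peptide; potency of inhibitors of the alpha-MSH evoked signal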
[34] = IOSE-T80 ovarian epithelial cell cytotoxicity, dose response, cytotoxicity control for PAX8 inhibitor project, plate reader, dry powder samples (AID 743045); assay type: functional, cell-based
Major prion protein = Major prion protein (Homo sapiens, UniProt P04156); assay type: functional, cell-based

## CN1c2ccc(-c3cccc(C#N)c3)cc2[C@H]2[C@H](CCN2S(=O)(=O)c2ccccc2F)[C@H]1CO
[1]
  AC50: 33.3 µM (active)
[2]
  AC50: 3.57 µM (active)
[3]
  AC50: 28.2 µM (active)
[4]
  AC50: 16.6 µM (active)
Paired box protein Pax-8
  AC50: 4.87 µM (active)
[5]
  AC50: 38.1 µM (active)
[6]
  AC50: 23.4 µM (active)

## O=C1NC(=O)N(CCc2ccccc2)C(=O)/C1=C/NNC(=O)c1ccccc1O
[7]
  EC50: 69.9 µM (active)
[8]
  IC50: > 100 µM (inactive)
[9]
  IC50: 63.5 µM (active)
Albumin
  IC50: > 94 µM (inactive)
Prothrombin
  IC50: 47.2 µM (active)

## O=C(O)C1CCCCC1C(=O)N1CCc2ccccc2C1CN1C(=O)Cc2ccccc2C1=O (centres undefined)
[10]
  AC50: > 52 µM (inactive)

## CSc1nc(O)c(C#N)c(-c2cccs2)n1
Cells [11]
  IC50: > 138 µM (inactive)

## C[C@H](CO)N1C[C@H](C)[C@H](CN(C)C(=O)Nc2ccccc2)Oc2ncccc2C1=O
[12]
  AC50: 12.3 µM (active)

## COc1cc(CN2CCc3ccccc3C2)ccc1O
[13]
  AC50: 0.912 µM (active)
[14]
  AC50: 2.65 µM (active)
[15]
  AC50: 24.9 µM (active)
[16]
  AC50: 3.71 µM (active)
Cells [17]
  IC50: > 29.9 µM (inactive)
[18]
  AC50: 2.93 µM (active)
[19]
  AC50: 5.64 µM (active)
Cells [20]
  EC50: > 29.9 µM (inactive)

## O=C(Cn1ccnc1[N+](=O)[O-])NCc1ccccc1 [BENZNIDAZOLE]
[21]
  AC50: 0.153 µM (active)

## C[C@@H]1CN([C@@H](C)CO)S(=O)(=O)c2ccc(C#Cc3ccccc3F)cc2O[C@@H]1CN(C)C(=O)Cc1ccncc1
[22]
  AC50: 6.5 µM (active)
[23]
  AC50: 45 µM (active)
[24]
  AC50: 5.41 µM (active)

## N#Cc1ccc(-c2ccc([C@@H]3[C@@H]4CN(C(=O)C5CC5)C[C@H]3N4)cc2)cc1
[25]
  AC50: 1.97 µM (active)
[26]
  AC50: 0.376 µM (active)
[1]
  AC50: 4.73 µM (active)
[27]
  AC50: 1.7 µM (active)
[28]
  AC50: 0.821 µM (active)
[29]
  AC50: 1.22 µM (active)
[30]
  AC50: 0.449 µM (active)
[2]
  AC50: < 0.3 µM (active)
[4]
  AC50: 7.05 µM (active)
Paired box protein Pax-8
  AC50: 1.16 µM (active)
[5]
  AC50: 7.18 µM (active)
[31]
  AC50: 0.328 µM (active)
[32]
  AC50: 1.41 µM (active)
[33]
  AC50: 0.684 µM (active)
[34]
  AC50: 40.5 µM (active)
[6]
  AC50: 19.9 µM (active)

## CSc1nc(-c2cccs2)c(C#N)c(=O)[nH]1
Major prion protein
  IC50: 3.22 µM (active)
